Starred links: 1 amine or outer side, 2 acyl side, 3 side chain; linkers in the order of their positions; H or OH if unused. Positions of bridges follow the written chain, without caps; N, C: chain ends. Non-standard residues stand in square brackets, D forms with d. Residues, ends and D or L forms follow the SMILES beside them. Phe(4-F) = N[C@@H](Cc1ccc(F)cc1)C(=O)O; X1 = CC(C)CCC[C@H](N[*:1])C(=O)[*:2]; tBuAla = CC(C)(C)C[C@H](N)C(=O)O; R8 = C=CCCCCCC[C@@](C)(N)C(=O)O; S5 = C=CCCC[C@](C)(N)C(=O)O

As usually defined, the Ki is the equilibrium dissociation constant of an inhibitor or competing ligand from its target.

In this assay the target is Mcl-1 (Homo sapiens, UniProt Q07820). Kind of assay: Ki determination for Mcl-1 (BCL-2 family binding spectrum). The settings on record: read-out: Ki MCL-1. From the text: To assess the binding and affinity of compounds that antagonize the interaction between a peptide and an acceptor protein, a fluorescence polarization assay (FPA) utilizing a fluoresceinated peptidomimetic macrocycle derived from a peptidomimetic precursor sequence is used, for example. The FPA technique measures the molecular orientation and mobility using polarized light and fluorescent tracer. […] A compound that antagonizes the interaction between the fluoresceinated peptidomimetic macrocycle and an acceptor protein will be detected in a competitive binding FPA experiment.
Chain of Mcl-1 (Q07820 whole entry, species assumed): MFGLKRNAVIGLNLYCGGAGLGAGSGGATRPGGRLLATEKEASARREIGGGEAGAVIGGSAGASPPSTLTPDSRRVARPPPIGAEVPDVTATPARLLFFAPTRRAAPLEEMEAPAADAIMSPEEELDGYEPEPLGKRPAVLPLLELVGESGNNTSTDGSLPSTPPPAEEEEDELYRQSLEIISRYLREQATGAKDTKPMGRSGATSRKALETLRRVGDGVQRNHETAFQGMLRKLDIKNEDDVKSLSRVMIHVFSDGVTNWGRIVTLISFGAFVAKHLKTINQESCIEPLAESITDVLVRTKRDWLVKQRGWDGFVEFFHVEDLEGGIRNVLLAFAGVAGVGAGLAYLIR
Antagonist binding activity is measured, for example, by fluorescence polarization on a luminescence spectrophotometer (e.g. Perkin-Elmer LS50B). Kd values may be determined by nonlinear regression analysis using, for example, Graphpad Prism software (GraphPad Software, Inc., San Diego, Calif.).
As for `CC[C@H](C)[C@H](NC(C)=O)C(=O)N[C@@H](Cc1c[nH]c2ccccc12)C(=O)N[C@H](C(=O)N[C@@H](C)C(=O)N[C@@H](CCC(N)=O)C(=O)N[C@@H](C)C(=O)N[C@@H](CC(C)C)C(=O)N[C@@H](CCCNC(=N)N)C(=O)N[C@]1(C)CCCCCCC=CCCC[C@@](C)(C(=O)N[C@@H](Cc2ccc(O)cc2)C(=O)N[C@@H](Cc2ccc(O)cc2)C(=O)N[C@@H](C)C(=O)N[C@@H](CCCNC(=N)N)C(=O)N[C@@H](CCCNC(=N)N)C(N)=O)NC(=O)[C@H](CC(N)=O)NC(=O)[C@H](Cc2ccccc2)NC(=O)[C@H](CCC(=O)O)NC(=O)[C@H](CC(=O)O)NC(=O)CNC(=O)[C@H]([C@@H](C)CC)NC1=O)[C@@H](C)CC` [compound 1628] (Ac-IWIAQALR[R8]IGDEFN[S5]YYARR-NH2; staple 9-16), the Ki turned out to be 10.6 nM.

For the compound `CC[C@H](C)[C@H](NC(C)=O)C(=O)N[C@@H](C)C(=O)N[C@H](C(=O)N[C@@H](C)C(=O)N[C@@H](CCC(N)=O)C(=O)N[C@@H](C)C(=O)N[C@@H](CC(C)C)C(=O)N[C@@H](CCCNC(=N)N)C(=O)N[C@]1(C)CCCCCCC=CCCC[C@@](C)(C(=O)N[C@@H](Cc2ccc(O)cc2)C(=O)N[C@@H](Cc2ccc(O)cc2)C(=O)N[C@@H](C)C(N)=O)NC(=O)[C@H](CC(N)=O)NC(=O)[C@H](Cc2ccccc2)NC(=O)[C@H](C)NC(=O)[C@H](CC(=O)O)NC(=O)CNC(=O)[C@H]([C@@H](C)CC)NC1=O)[C@@H](C)CC` [compound 1648] (Ac-IAIAQALR[R8]IGDAFN[S5]YYA-NH2; staple 9-16), the inhibitory constant (Ki) was determined as 19.7 nM.

Take `CC[C@H](C)[C@H](NC(C)=O)C(=O)N[C@@H](Cc1c[nH]c2ccccc12)C(=O)N[C@@H](CCCC(C)C)C(=O)N[C@@H](C)C(=O)N[C@@H](CCC(N)=O)C(=O)N[C@@H](C)C(=O)N[C@@H](CC(C)C)C(=O)N[C@@H](CCCNC(=N)N)C(=O)N[C@]1(C)CCCCCCC=CCCC[C@@](C)(C(=O)N[C@@H](Cc2ccc(O)cc2)C(=O)N[C@@H](Cc2ccc(O)cc2)C(=O)N[C@@H](C)C(N)=O)NC(=O)[C@H](CC(N)=O)NC(=O)[C@H](Cc2ccccc2)NC(=O)[C@H](C)NC(=O)[C@H](CC(=O)O)NC(=O)CNC(=O)[C@H]([C@@H](C)CC)NC1=O` [compound 1678] (Ac-IW[X1]AQALR[R8]IGDAFN[S5]YYA-NH2; staple 9-16): the Ki turned out to be 21.2 nM.

For `CC[C@H](C)[C@H](NC(C)=O)C(=O)N[C@@H](Cc1c[nH]c2ccccc12)C(=O)N[C@H](C(=O)N[C@@H](C)C(=O)N[C@@H](CCC(N)=O)C(=O)N[C@@H](C)C(=O)N[C@@H](CC(C)C)C(=O)N[C@@H](CCCNC(=N)N)C(=O)N[C@]1(C)CCCCCC/C=C\CCC[C@@](C)(C(=O)N[C@@H](Cc2ccc(O)cc2)C(=O)N[C@@H](Cc2ccc(O)cc2)C(=O)N[C@@H](C)C(N)=O)NC(=O)[C@H](CC(N)=O)NC(=O)[C@H](Cc2ccccc2)NC(=O)[C@H](C)NC(=O)[C@H](CC(=O)O)NC(=O)CNC(=O)[C@H](CC(C)(C)C)NC1=O)[C@@H](C)CC` [compound 1701] (Ac-IWIAQALR[R8][tBuAla]GDAFN[S5]YYA-NH2; staple (Z) 9-16), the Ki was 13.7 nM.

With `CC[C@H](C)[C@H](NC(C)=O)C(=O)N[C@@H](Cc1c[nH]c2ccccc12)C(=O)N[C@H](C(=O)N[C@@H](C)C(=O)N[C@@H](CCC(N)=O)C(=O)N[C@@H](C)C(=O)N[C@@H](CC(C)C)C(=O)N[C@@H](CCCNC(=N)N)C(=O)N[C@]1(C)CCCCCCC=CCCC[C@@](C)(C(=O)N[C@@H](Cc2ccc(O)cc2)C(=O)N[C@@H](Cc2ccc(F)cc2)C(=O)N[C@@H](C)C(N)=O)NC(=O)[C@H](CC(N)=O)NC(=O)[C@H](Cc2ccccc2)NC(=O)[C@H](C)NC(=O)[C@H](CC(=O)O)NC(=O)CNC(=O)[C@H]([C@@H](C)CC)NC1=O)[C@@H](C)CC` [compound 1710] (Ac-IWIAQALR[R8]IGDAFN[S5]Y[Phe(4-F)]A-NH2; staple 9-16), the inhibition constant (Ki) worked out at 4.8 nM.

As for `CC[C@H](C)[C@H](NC(=O)[C@H](Cc1c[nH]c2ccccc12)NC(=O)[C@H](CCC(=O)O)NC(C)=O)C(=O)N[C@@H](C)C(=O)N[C@@H](C)C(=O)N[C@@H](C)C(=O)N[C@@H](CC(C)C)C(=O)N[C@@H](CCCNC(=N)N)C(=O)N[C@]1(C)CCCCCCC=CCCC[C@@](C)(C(=O)N[C@@H](Cc2ccc(O)cc2)C(=O)N[C@@H](Cc2ccc(O)cc2)C(=O)N[C@@H](C)C(N)=O)NC(=O)[C@H](CC(N)=O)NC(=O)[C@H](Cc2ccccc2)NC(=O)[C@H](C)NC(=O)[C@H](CC(=O)O)NC(=O)CNC(=O)[C@H]([C@@H](C)CC)NC1=O` [compound 1716] (Ac-EWIAAALR[R8]IGDAFN[S5]YYA-NH2; staple 9-16), the Ki stood at 2.2 nM.

Regarding `CC[C@H](C)[C@H](NC(=O)[C@H](Cc1c[nH]c2ccccc12)NC(=O)[C@H](CCCCN)NC(C)=O)C(=O)N[C@@H](C)C(=O)N[C@@H](C)C(=O)N[C@@H](C)C(=O)N[C@@H](CC(C)C)C(=O)N[C@@H](CCCNC(=N)N)C(=O)N[C@]1(C)CCCCCCC=CCCC[C@@](C)(C(=O)N[C@@H](Cc2ccc(O)cc2)C(=O)N[C@@H](Cc2ccc(O)cc2)C(=O)N[C@@H](C)C(N)=O)NC(=O)[C@H](CC(N)=O)NC(=O)[C@H](Cc2ccccc2)NC(=O)[C@H](C)NC(=O)[C@H](CC(=O)O)NC(=O)CNC(=O)[C@H]([C@@H](C)CC)NC1=O` [compound 1718] (Ac-KWIAAALR[R8]IGDAFN[S5]YYA-NH2; staple 9-16), the inhibition constant Ki stood at 3.9 nM.

In the case of `CC[C@H](C)[C@H](NC(=O)[C@H](Cc1c[nH]c2ccccc12)NC(=O)[C@H](Cc1c[nH]cn1)NC(C)=O)C(=O)N[C@@H](C)C(=O)N[C@@H](C)C(=O)N[C@@H](C)C(=O)N[C@@H](CC(C)C)C(=O)N[C@@H](CCCNC(=N)N)C(=O)N[C@]1(C)CCCCCCC=CCCC[C@@](C)(C(=O)N[C@@H](Cc2ccc(O)cc2)C(=O)N[C@@H](Cc2ccc(O)cc2)C(=O)N[C@@H](C)C(N)=O)NC(=O)[C@H](CC(N)=O)NC(=O)[C@H](Cc2ccccc2)NC(=O)[C@H](C)NC(=O)[C@H](CC(=O)O)NC(=O)CNC(=O)[C@H]([C@@H](C)CC)NC1=O` [compound 1719] (Ac-HWIAAALR[R8]IGDAFN[S5]YYA-NH2; staple 9-16), the Ki turned out to be 3.6 nM.

On to `CC[C@H](C)[C@H](NC(=O)[C@H](Cc1c[nH]c2ccccc12)NC(=O)[C@H](CO)NC(C)=O)C(=O)N[C@@H](C)C(=O)N[C@@H](C)C(=O)N[C@@H](C)C(=O)N[C@@H](CC(C)C)C(=O)N[C@@H](CCCNC(=N)N)C(=O)N[C@]1(C)CCCCCCC=CCCC[C@@](C)(C(=O)N[C@@H](Cc2ccc(O)cc2)C(=O)N[C@@H](Cc2ccc(O)cc2)C(=O)N[C@@H](C)C(N)=O)NC(=O)[C@H](CC(N)=O)NC(=O)[C@H](Cc2ccccc2)NC(=O)[C@H](C)NC(=O)[C@H](CC(=O)O)NC(=O)CNC(=O)[C@H]([C@@H](C)CC)NC1=O` [compound 1720] (Ac-SWIAAALR[R8]IGDAFN[S5]YYA-NH2; staple 9-16), for which the Ki turned out to be 3.9 nM.

For `CC[C@H](C)[C@H](NC(=O)[C@H](Cc1c[nH]c2ccccc12)NC(=O)[C@H](CCC(N)=O)NC(C)=O)C(=O)N[C@@H](C)C(=O)N[C@@H](C)C(=O)N[C@@H](C)C(=O)N[C@@H](CC(C)C)C(=O)N[C@@H](CCCNC(=N)N)C(=O)N[C@]1(C)CCCCCCC=CCCC[C@@](C)(C(=O)N[C@@H](Cc2ccc(O)cc2)C(=O)N[C@@H](Cc2ccc(O)cc2)C(=O)N[C@@H](C)C(N)=O)NC(=O)[C@H](CC(N)=O)NC(=O)[C@H](Cc2ccccc2)NC(=O)[C@H](C)NC(=O)[C@H](CC(=O)O)NC(=O)CNC(=O)[C@H]([C@@H](C)CC)NC1=O` [compound 1721] (Ac-QWIAAALR[R8]IGDAFN[S5]YYA-NH2; staple 9-16), the Ki stood at 4.8 nM.

In the case of `CC[C@H](C)[C@H](NC(=O)[C@H](Cc1c[nH]c2ccccc12)NC(=O)[C@H](C)NC(C)=O)C(=O)N[C@@H](C)C(=O)N[C@@H](C)C(=O)N[C@@H](C)C(=O)N[C@@H](CC(C)C)C(=O)N[C@@H](CCCNC(=N)N)C(=O)N[C@]1(C)CCCCCCC=CCCC[C@@](C)(C(=O)N[C@@H](Cc2ccc(O)cc2)C(=O)N[C@@H](Cc2ccc(O)cc2)C(=O)N[C@@H](C)C(N)=O)NC(=O)[C@H](CC(N)=O)NC(=O)[C@H](Cc2ccccc2)NC(=O)[C@H](C)NC(=O)[C@H](CC(=O)O)NC(=O)CNC(=O)[C@H]([C@@H](C)CC)NC1=O` [compound 1722] (Ac-AWIAAALR[R8]IGDAFN[S5]YYA-NH2; staple 9-16), the inhibition constant (Ki) was 3.8 nM.

Turning to `CC[C@H](C)[C@H](NC(C)=O)C(=O)N[C@@H](Cc1c[nH]cn1)C(=O)N[C@H](C(=O)N[C@@H](C)C(=O)N[C@@H](C)C(=O)N[C@@H](C)C(=O)N[C@@H](CC(C)C)C(=O)N[C@@H](CCCNC(=N)N)C(=O)N[C@]1(C)CCCCCCC=CCCC[C@@](C)(C(=O)N[C@@H](Cc2ccc(O)cc2)C(=O)N[C@@H](Cc2ccc(O)cc2)C(=O)N[C@@H](C)C(N)=O)NC(=O)[C@H](CC(N)=O)NC(=O)[C@H](Cc2ccccc2)NC(=O)[C@H](C)NC(=O)[C@H](CC(=O)O)NC(=O)CNC(=O)[C@H]([C@@H](C)CC)NC1=O)[C@@H](C)CC` [compound 1727] (Ac-IHIAAALR[R8]IGDAFN[S5]YYA-NH2; staple 9-16), the inhibition constant (Ki) came out at 6.6 nM.

For `CC[C@H](C)[C@H](NC(C)=O)C(=O)N[C@@H](CC(C)C)C(=O)N[C@H](C(=O)N[C@@H](C)C(=O)N[C@@H](C)C(=O)N[C@@H](C)C(=O)N[C@@H](CC(C)C)C(=O)N[C@@H](CCCNC(=N)N)C(=O)N[C@]1(C)CCCCCCC=CCCC[C@@](C)(C(=O)N[C@@H](Cc2ccc(O)cc2)C(=O)N[C@@H](Cc2ccc(O)cc2)C(=O)N[C@@H](C)C(N)=O)NC(=O)[C@H](CC(N)=O)NC(=O)[C@H](Cc2ccccc2)NC(=O)[C@H](C)NC(=O)[C@H](CC(=O)O)NC(=O)CNC(=O)[C@H]([C@@H](C)CC)NC1=O)[C@@H](C)CC` [compound 1730] (Ac-ILIAAALR[R8]IGDAFN[S5]YYA-NH2; staple 9-16), the inhibition constant Ki turned out to be 10.2 nM.

Source of the values: US20190185518A9, “WARHEAD-CONTAINING PEPTIDOMIMETIC MACROCYCLES AS MODULATORS OF BFL-1” (AILERON Therapeutics, Inc., priority 2017, published 2019).
